# Patent US11173140B2, “Dosing regimens of PKC activators” (COGNITIVE RESEARCH ENTERPRISES, INC., priority 2015, dated 2021)
# Columns and labels:
# PKC-ε = biological target: T1, PKC-ε (Homo sapiens, UniProt Q02156); assay: Compassionate use study: PKC-ε level in blood; format: in vivo; conditions: advanced AD patient blood, weekly dose of 25 μg/m^2, three consecutive weeks
# T1 construct: from tissue; host or cells: blood of a human advanced Alzheimer's disease patient
# T1 sequence (Q02156 1-737): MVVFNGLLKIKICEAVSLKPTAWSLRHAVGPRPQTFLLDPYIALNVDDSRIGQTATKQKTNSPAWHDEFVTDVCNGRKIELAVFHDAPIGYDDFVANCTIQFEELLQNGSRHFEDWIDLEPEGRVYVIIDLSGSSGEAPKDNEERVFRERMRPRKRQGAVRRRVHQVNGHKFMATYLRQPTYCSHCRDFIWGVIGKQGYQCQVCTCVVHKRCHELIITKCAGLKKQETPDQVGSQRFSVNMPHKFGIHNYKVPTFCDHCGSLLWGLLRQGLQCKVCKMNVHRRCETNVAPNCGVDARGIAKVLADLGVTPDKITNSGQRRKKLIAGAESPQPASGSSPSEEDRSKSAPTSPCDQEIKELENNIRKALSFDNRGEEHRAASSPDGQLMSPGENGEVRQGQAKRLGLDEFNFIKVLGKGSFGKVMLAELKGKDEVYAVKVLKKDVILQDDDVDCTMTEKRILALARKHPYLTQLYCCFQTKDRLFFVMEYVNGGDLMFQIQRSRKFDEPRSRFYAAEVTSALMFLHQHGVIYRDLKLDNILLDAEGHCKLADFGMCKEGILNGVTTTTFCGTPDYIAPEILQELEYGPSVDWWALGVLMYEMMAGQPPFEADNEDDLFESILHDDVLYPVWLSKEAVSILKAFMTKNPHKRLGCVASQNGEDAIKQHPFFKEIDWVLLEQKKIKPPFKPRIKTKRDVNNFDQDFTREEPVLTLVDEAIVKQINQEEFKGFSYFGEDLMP
# Protocol: (§1) FIG. 1 illustrates, inter alia, the level of PKCε in the blood of a human subject receiving 25 μg/m^2 of bryostatin as a single weekly dose for three consecutive weeks followed by cessation of dosing for one week and then two additional weeks of dosing at 25 μg/m^2.
# (§2) FIG. 1 illustrates early results of a compassionate use (CU) study involving human advanced AD patients. […] The administration comprised three consecutive weeks of dosing followed by cessation for one week and then two additional weeks of dosing. Standard psychometric tests were used to measure cognitive functions and behaviors. The study also evaluated the relationship between the level of bryostatin's target, PKC epsilon, in the blood and the cognitive measurements.
# (§3) Observed improvements included restored speech and word recognition, restored swallowing, lowered or prevented hallucinations, and improved complex motor functions. […] For example, the observed behavioral improvements included restoration of speech and word recognition, restoration of swallowing, disappearance of hallucinations, return of complex motor activity, including swimming, billiards, conversational interactions, and orientation in time and space.
# [1] = Bryostatin levels in brain and plasma (HPLC-MS), crossing of blood-brain barrier; format: in vivo, mice; conditions: for bryostatin (% of Control), BRAIN: mouse brain; for bryostatin (% of Control), PLASMA: mouse plasma
# Protocol: FIG. 5 illustrates the steady state concentration of bryostatin in the brain and plasma of mice following intravenous administration at the indicated doses.
# Further evaluation was performed on bryostatin crossing the blood-brain-barrier (BBB) and the steady state levels of bryostatin in the brain and plasma of mice. […] The concentration of bryostatin in mice brain was less than its concentration in plasma.
# In these studies, bryostatin was administered intravenously (i.v.) by injection into the tail vein of a mouse. Stock solutions of bryostatin were prepared in dimethyl sulfoxide (DMSO). Prior to administration to a mouse, the stock DMSO solution of bryostatin was diluted to a predetermined concentration by dilution with phosphate buffered saline/saline (PBS/saline).
# The brain, whole blood, and plasma of mice in each dosing group as well as control mice was collected at 1 hour, 24 hours and 7 days after the last injection of bryostatin. PBMC's were isolated from blood and the brain, blood, plasma and PBMC's were frozen immediately using dry ice. Prior to analysis PBMC's were counted by diluting the sample (10 μl aliquot), 10-fold and the PBMC's counted using a Millipore Scepter cell counter. Every group of test animals had its own control group (N=3). Mice in the control group were injected with vehicle at a frequency similar to the dosing regimen and these animals were sacrificed and tested in parallel with mice in the test group.
# Each measurement was performed four times (X4). BDNF levels were measured using ELISA and the concentration of protein PSD-95 was measured by Western Blot. High performance liquid chromatography-mass spectral analysis was used to measure the concentration of bryostatin in blood and brain samples based on a standard curve. Total protein concentrations were measured Coomassie Plus (Bradford) Protein Assay kit.
# The therapeutic efficacy of bryostatin depends at least in part on its ability to cross the blood-brain-barrier (BBB). To evaluate whether dosing regimen influences the bryostatin levels in brain, mice were administered the drug intravenously. Table 9 illustrates the effect of dose and dosing regimen on bryostatin levels in the brain and plasma of mice. Sporadic dosing increased the levels of bryostatin in brain compared to plasma. See data for mice in cages 9 and 11.
# advanced AD patients = assay: Compassionate use study: cognitive function and behavior (MMSE, ADL-siv); format: in vivo, human
# Protocol: as §1, §2, §3
# The decline closely tracked the decline in PCK-ε levels, as illustrated in FIG. 1. The observed decline was due to a well-known phenomenon that follows PKC activation called “downregulation”. Sustained clinical improvements in these patients with advanced AD were mitigated by the downregulation of the bryostatin target, PKC-ε. From these preliminary observations the inventors hypothesized that an intermittent dosing regimen of bryostatin was more suitable for maintaining cognitive benefits in AD patients.
# [2] = cage 4: 25 μg/m^2 i.v. once weekly, 3 weeks, 24 h
# [3] = cage 6: 10 μg/m^2 i.v. once weekly, 3 weeks, 24 h
# [4] = cage 9: 25 μg/m^2 i.v., weeks 1 and 3, 24 h
# [5] = cage 11: 25 μg/m^2 i.v., weeks 1 and 2, 7 d delay
# [6] = advanced AD patients, weekly dose of 25 μg/m^2, three consecutive weeks
structure (smiles),measurement,setting,value
CCC/C=C/C=C/C(=O)O[C@H]1/C(=C/C(=O)OC)C[C@H]2C[C@H]([C@@H](C)O)OC(=O)C[C@H](O)C[C@@H]3C[C@H](OC(C)=O)C(C)(C)[C@](O)(C[C@@H]4C/C(=C/C(=O)OC)C[C@H](/C=C/C(C)(C)[C@]1(O)O2)O4)O3 [Bryostatin-1],total PKC-ε levels,PKC-ε,increased
same,increase of bryostatin concentration in brain,"[1]; mice, 25 μg/m^2 weekly for three consecutive weeks versus 1 on/1 off or 2 on/1 off",less effective
same,crossing of the blood-brain-barrier,"[1]; mice, intravenous",crossed the BBB
same,plasma concentrations of bryostatin,"[1]; mice, single weekly injection for three consecutive weeks versus 1 on/1 off or 2 on/1 off",greater
same,levels of bryostatin in brain compared to plasma,"[1]; mice, sporadic dosing (cages 9 and 11)",increased
same,"bryostatin (% of Control), BRAIN",[1]; [2],0.0140 % of Control
same,"bryostatin (% of Control), BRAIN",[1]; [3],0.0202 % of Control
same,"bryostatin (% of Control), BRAIN",[1]; [4],0.0197 % of Control
same,"bryostatin (% of Control), BRAIN",[1]; [5],0.0217 % of Control
same,"bryostatin (% of Control), PLASMA",[1]; [2],0.0306 % of Control
same,"bryostatin (% of Control), PLASMA",[1]; [3],0.0287 % of Control
same,"bryostatin (% of Control), PLASMA",[1]; [4],0.0148 % of Control
same,"bryostatin (% of Control), PLASMA",[1]; [5],0.0012 % of Control
same,maintenance of cognitive benefits,"advanced AD patients; additional bryostatin dosing in weeks 5, 6 and 8-13",failed to maintain the observed cognitive benefits
same,Activities of Daily Living-Severe Impairment Version (ADL-siv),advanced AD patients; [6],improvements
same,Mini-Mental State Examination (MMSE) score,advanced AD patients; [6],improvements
